Measurements published in ChEMBL document CHEMBL3112568, “Synthesis, antifungal activities and molecular docking studies of novel 2-(2,4-difluorophenyl)-2-hydroxy-3-(1H-1,2,4-triazol-1-yl)propyl dithiocarbamates” (2014).
In brackets after ≈: the same amount, converted by molar mass.

How the values were obtained:
Assay type in all cases: functional
[1] = system: Trichophyton rubrum; assay: Antifungal activity against Trichophyton rubrum by micro-broth dilution method
[2] = system: Cryptococcus neoformans; assay: Antifungal activity against Cryptococcus neoformans after 72 hrs by micro-broth dilution method
[3] = system: Nannizzia gypsea; assay: Antifungal activity against Microsporum gypseum by micro-broth dilution method
[4] = system: Candida albicans; assay: Antifungal activity against Candida albicans Y0109 after 24 hrs by micro-broth dilution method; conditions: Y0109, 24 h
[5] = system: Nakaseomyces glabratus; assay: Antifungal activity against Candida glabrata by micro-broth dilution method
[6] = system: Aspergillus fumigatus; assay: Antifungal activity against Aspergillus fumigatus by micro-broth dilution method
[7] = system: Candida albicans; assay: Antifungal activity against Candida albicans SC5314 after 24 hrs by micro-broth dilution method; conditions: SC5314, 24 h
[8] = system: Candida parapsilosis; assay: Antifungal activity against Candida parapsilosis by micro-broth dilution method; conditions: Lodderomyces parapsilosis

## CCC(C)n1ncn(-c2ccc(N3CCN(c4ccc(OCC5COC(Cn6cncn6)(c6ccc(Cl)cc6Cl)O5)cc4)CC3)cc2)c1=O (stereo unspecified) [ITRACONAZOLE]
[1]
  MIC80: 4 µg/mL (≈ 5.67 µM)
[2]
  MIC80: 4 µg/mL (≈ 5.67 µM)
[3]
  MIC80: 4 µg/mL (≈ 5.67 µM)
[4]
  MIC80: 8 µg/mL (≈ 11.3 µM)
[5]
  MIC80: 1 µg/mL (≈ 1.42 µM)
[6]
  MIC80: 8 µg/mL (≈ 11.3 µM)
[7]
  MIC80: 4 µg/mL (≈ 5.67 µM)
[8]
  MIC80: 8 µg/mL (≈ 11.3 µM)

## OC(CSC(=S)N1CCN(c2ccccc2F)CC1)(Cn1cncn1)c1ccc(F)cc1F (racemic)
[1]
  MIC80: 1 µg/mL (≈ 2.03 µM)
[2]
  MIC80: 0.5 µg/mL (≈ 1.01 µM)
[3]
  MIC80: > 64 µg/mL
[4]
  MIC80: 0.5 µg/mL (≈ 1.01 µM)
[5]
  MIC80: 0.5 µg/mL (≈ 1.01 µM)
[6]
  MIC80: > 64 µg/mL
[7]
  MIC80: 0.5 µg/mL (≈ 1.01 µM)
[8]
  MIC80: 2 µg/mL (≈ 4.05 µM)

## CC(C)NC(=S)SCC(O)(Cn1cncn1)c1ccc(F)cc1F (racemic)
[1]
  MIC80: 64 µg/mL (≈ 172 µM)
[2]
  MIC80: 64 µg/mL (≈ 172 µM)
[3]
  MIC80: > 64 µg/mL
[4]
  MIC80: 1 µg/mL (≈ 2.68 µM)
[5]
  MIC80: 4 µg/mL (≈ 10.7 µM)
[6]
  MIC80: > 64 µg/mL
[7]
  MIC80: 2 µg/mL (≈ 5.37 µM)
[8]
  MIC80: 1 µg/mL (≈ 2.68 µM)

## CN(CCO)C(=S)SCC(O)(Cn1cncn1)c1ccc(F)cc1F (racemic)
[1]
  MIC80: 4 µg/mL (≈ 10.3 µM)
[2]
  MIC80: 8 µg/mL (≈ 20.6 µM)
[3]
  MIC80: 16 µg/mL (≈ 41.2 µM)
[4]
  MIC80: ≤ 0.125 µg/mL
[5]
  MIC80: ≤ 0.125 µg/mL
[6]
  MIC80: > 64 µg/mL
[7]
  MIC80: ≤ 0.125 µg/mL
[8]
  MIC80: ≤ 0.125 µg/mL

## CNC(=S)SCC(O)(Cn1cncn1)c1ccc(F)cc1F (racemic)
[1]
  MIC80: 4 µg/mL (≈ 11.6 µM)
[2]
  MIC80: 64 µg/mL (≈ 186 µM)
[3]
  MIC80: > 64 µg/mL
[4]
  MIC80: 1 µg/mL (≈ 2.9 µM)
[5]
  MIC80: 2 µg/mL (≈ 5.81 µM)
[6]
  MIC80: > 64 µg/mL
[7]
  MIC80: 1 µg/mL (≈ 2.9 µM)
[8]
  MIC80: > 64 µg/mL

## CCCCNC(=S)SCC(O)(Cn1cncn1)c1ccc(F)cc1F (racemic)
[1]
  MIC80: > 64 µg/mL
[2]
  MIC80: 64 µg/mL (≈ 166 µM)
[3]
  MIC80: > 64 µg/mL
[4]
  MIC80: 0.5 µg/mL (≈ 1.29 µM)
[5]
  MIC80: 16 µg/mL (≈ 41.4 µM)
[6]
  MIC80: > 64 µg/mL
[7]
  MIC80: 0.5 µg/mL (≈ 1.29 µM)
[8]
  MIC80: 0.25 µg/mL (≈ 0.647 µM)

## OC(CSC(=S)NC1CC1)(Cn1cncn1)c1ccc(F)cc1F (racemic)
[1]
  MIC80: 64 µg/mL (≈ 173 µM)
[2]
  MIC80: 64 µg/mL (≈ 173 µM)
[3]
  MIC80: > 64 µg/mL
[4]
  MIC80: 1 µg/mL (≈ 2.7 µM)
[5]
  MIC80: 8 µg/mL (≈ 21.6 µM)
[6]
  MIC80: > 64 µg/mL
[7]
  MIC80: 1 µg/mL (≈ 2.7 µM)
[8]
  MIC80: 1 µg/mL (≈ 2.7 µM)

## OC(CSC(=S)NC1CCCCC1)(Cn1cncn1)c1ccc(F)cc1F (racemic)
[1]
  MIC80: 64 µg/mL (≈ 155 µM)
[2]
  MIC80: 16 µg/mL (≈ 38.8 µM)
[3]
  MIC80: > 64 µg/mL
[4]
  MIC80: 0.25 µg/mL (≈ 0.606 µM)
[5]
  MIC80: 4 µg/mL (≈ 9.7 µM)
[6]
  MIC80: > 64 µg/mL
[7]
  MIC80: 0.25 µg/mL (≈ 0.606 µM)
[8]
  MIC80: 64 µg/mL (≈ 155 µM)

## OC(CSC(=S)N1CCN(c2cccc(C(F)(F)F)c2)CC1)(Cn1cncn1)c1ccc(F)cc1F (racemic)
[1]
  MIC80: 1 µg/mL (≈ 1.84 µM)
[2]
  MIC80: 0.25 µg/mL (≈ 0.46 µM)
[3]
  MIC80: 2 µg/mL (≈ 3.68 µM)
[4]
  MIC80: ≤ 0.125 µg/mL
[5]
  MIC80: 0.25 µg/mL (≈ 0.46 µM)
[6]
  MIC80: 8 µg/mL (≈ 14.7 µM)
[7]
  MIC80: ≤ 0.125 µg/mL
[8]
  MIC80: 0.5 µg/mL (≈ 0.92 µM)

## OC(CSC(=S)N1CCN(c2ccccc2)CC1)(Cn1cncn1)c1ccc(F)cc1F (racemic)
[1]
  MIC80: 2 µg/mL (≈ 4.21 µM)
[2]
  MIC80: ≤ 0.125 µg/mL
[3]
  MIC80: 2 µg/mL (≈ 4.21 µM)
[4]
  MIC80: 0.25 µg/mL (≈ 0.526 µM)
[5]
  MIC80: ≤ 0.125 µg/mL
[6]
  MIC80: 4 µg/mL (≈ 8.41 µM)
[7]
  MIC80: 0.25 µg/mL (≈ 0.526 µM)
[8]
  MIC80: 0.25 µg/mL (≈ 0.526 µM)

## OC(CSC(=S)N1CCCCC1)(Cn1cncn1)c1ccc(F)cc1F (racemic)
[1]
  MIC80: 8 µg/mL (≈ 20.1 µM)
[2]
  MIC80: ≤ 0.125 µg/mL
[3]
  MIC80: 8 µg/mL (≈ 20.1 µM)
[4]
  MIC80: ≤ 0.125 µg/mL
[5]
  MIC80: ≤ 0.125 µg/mL
[6]
  MIC80: 16 µg/mL (≈ 40.2 µM)
[7]
  MIC80: ≤ 0.125 µg/mL
[8]
  MIC80: 0.5 µg/mL (≈ 1.25 µM)

## OCCN(Cc1ccccc1)C(=S)SCC(O)(Cn1cncn1)c1ccc(F)cc1F (racemic)
[1]
  MIC80: 2 µg/mL (≈ 4.31 µM)
[2]
  MIC80: 2 µg/mL (≈ 4.31 µM)
[3]
  MIC80: 32 µg/mL (≈ 68.9 µM)
[4]
  MIC80: 0.25 µg/mL (≈ 0.538 µM)
[5]
  MIC80: ≤ 0.125 µg/mL
[6]
  MIC80: > 64 µg/mL
[7]
  MIC80: 0.25 µg/mL (≈ 0.538 µM)
[8]
  MIC80: 0.25 µg/mL (≈ 0.538 µM)

## CCCNC(=S)SCC(O)(Cn1cncn1)c1ccc(F)cc1F (racemic)
[1]
  MIC80: 32 µg/mL (≈ 85.9 µM)
[2]
  MIC80: 64 µg/mL (≈ 172 µM)
[3]
  MIC80: > 64 µg/mL
[4]
  MIC80: 0.25 µg/mL (≈ 0.671 µM)
[5]
  MIC80: 2 µg/mL (≈ 5.37 µM)
[6]
  MIC80: > 64 µg/mL
[7]
  MIC80: 0.25 µg/mL (≈ 0.671 µM)
[8]
  MIC80: > 64 µg/mL

## CN(C(=S)SCC(O)(Cn1cncn1)c1ccc(F)cc1F)c1ccccc1 (racemic)
[1]
  MIC80: 2 µg/mL (≈ 4.76 µM)
[2]
  MIC80: 1 µg/mL (≈ 2.38 µM)
[3]
  MIC80: 2 µg/mL (≈ 4.76 µM)
[4]
  MIC80: 0.25 µg/mL (≈ 0.595 µM)
[5]
  MIC80: 0.5 µg/mL (≈ 1.19 µM)
[6]
  MIC80: 64 µg/mL (≈ 152 µM)
[7]
  MIC80: 0.5 µg/mL (≈ 1.19 µM)
[8]
  MIC80: 32 µg/mL (≈ 76.1 µM)

## OC(CSC(=S)N1CCN(c2ccc(F)cc2)CC1)(Cn1cncn1)c1ccc(F)cc1F (racemic)
[1]
  MIC80: 1 µg/mL (≈ 2.03 µM)
[2]
  MIC80: ≤ 0.125 µg/mL
[3]
  MIC80: 2 µg/mL (≈ 4.05 µM)
[4]
  MIC80: ≤ 0.125 µg/mL
[5]
  MIC80: 0.25 µg/mL (≈ 0.507 µM)
[6]
  MIC80: 16 µg/mL (≈ 32.4 µM)
[7]
  MIC80: 0.25 µg/mL (≈ 0.507 µM)
[8]
  MIC80: 0.25 µg/mL (≈ 0.507 µM)

## OC(CSC(=S)N1CCN(c2cccc(Cl)c2Cl)CC1)(Cn1cncn1)c1ccc(F)cc1F (racemic)
[1]
  MIC80: 0.5 µg/mL (≈ 0.918 µM)
[2]
  MIC80: 0.5 µg/mL (≈ 0.918 µM)
[3]
  MIC80: 16 µg/mL (≈ 29.4 µM)
[4]
  MIC80: ≤ 0.125 µg/mL
[5]
  MIC80: 0.5 µg/mL (≈ 0.918 µM)
[6]
  MIC80: > 64 µg/mL
[7]
  MIC80: 0.5 µg/mL (≈ 0.918 µM)
[8]
  MIC80: 1 µg/mL (≈ 1.84 µM)

## OC(CSC(=S)N1CCN(c2cccc(F)c2)CC1)(Cn1cncn1)c1ccc(F)cc1F (racemic)
[1]
  MIC80: 0.5 µg/mL (≈ 1.01 µM)
[2]
  MIC80: ≤ 0.125 µg/mL
[3]
  MIC80: 4 µg/mL (≈ 8.1 µM)
[4]
  MIC80: ≤ 0.125 µg/mL
[5]
  MIC80: 0.25 µg/mL (≈ 0.507 µM)
[6]
  MIC80: 8 µg/mL (≈ 16.2 µM)
[7]
  MIC80: ≤ 0.125 µg/mL
[8]
  MIC80: 0.5 µg/mL (≈ 1.01 µM)
